Molecules are shown by their SMILES. Some results are limits rather than exact numbers.

Broadly, the melting point is the temperature of the solid-liquid transition. On to `COc1ccc(C2SCc3c(sc(N)c3C(=O)c3ccc(Cl)cc3)S2)cc1` (centres undefined), for which the melting point is 158 to 160 °C.

`Clc1cc2cc[nH]c2cn1` gave a melting point of 192 to 194 °C.

Compound `C[Si](C)(C)CCOCn1cc(C#N)c(=O)c2cc([N+](=O)[O-])c(Cl)cc21` registered a melting point of 200 to 202 °C.

`COC1=CC(Cl)(OC)NC(C(=O)CC(=O)Nc2ccccc2)=N1` (centres undefined): the melting point was 142 to 144 °C.

For `CC(=O)NC1Cc2ccc([N+](=O)[O-])cc2C1` (centres undefined), the melting point lay in the range of 143 to 144 °C.

Regarding `CC(=Cc1cc(Cl)ccc1O)[N+](=O)[O-]`, the melting point was in the range of 104 to 106 °C.

`COS(=O)c1cc(C(=O)CBr)ccc1C` (centres undefined) gave a melting point of 123 to 125 °C.

Regarding `O=C1CCN(Cc2ccc([N+](=O)[O-])cc2)CC1C(c1ccc(F)cc1)c1ccc(F)cc1` (centres undefined), the melting point lay within 118 to 119 °C.

`CN(C)Cc1cnc2cc(NC(=O)c3ccc(-c4ccc(Cl)cc4)cc3)ccc2c1` showed a melting point of 236 to 238 °C.

`CCc1ccc(S(=O)(=O)Nc2ccccc2/C=C/c2ccncc2)cc1` gave a melting point of 232 to 234 °C.

`CCOC(=O)Cc1nc(-c2ccc(C)cc2)oc1-c1ccco1` displayed a melting point of 84 to 85 °C.

With `Cn1nc(-c2c(F)cccc2Cl)nc1-c1ccc([N+](=O)[O-])cc1Cl`, the melting point is 144 to 148 °C.

In the case of `CNc1nc(NC)c2ncn(COC(COC(=O)C(C)C)COC(=O)C(C)C)c2n1`, the melting point lay within 122 to 123 °C.

Take `CC(C)(C(=O)c1ccc(N2CCCCC2)cc1)N1CCOCC1`: the melting point is 159 to 162 °C.

Compound `NC(=O)NN=Cc1c(O)c(O)cc2ccccc12` showed a melting point of 210 to 215 °C.

Compound `COC(=O)CCC(=O)N(C)c1cccc(OCc2nc3ccccc3s2)c1` registered a melting point of 107 to 110 °C.

Compound `O=C1C2=C(CCCC2)C(=O)N1c1cc([N+](=O)[O-])ccc1F` yielded a melting point of 154 to 156 °C.

The compound `CC1CC(=O)C1(Cl)CC(Cl)(Cl)Cl` (centres undefined) registered a melting point of 80 to 81 °C.

Take `CCc1cc2c(-c3ccccc3Cl)c(NC(=O)Nc3ccc(F)cc3F)cnc2s1`: the melting point was 217 to 218 °C.

Turning to `NC(=O)c1cccc2c1c1c(OCC(=O)O)ccc(Cl)c1n2Cc1ccccc1`, the melting point fell in the range of 240 to 242 °C.

In turn, `Oc1ccccc1CNCc1cccc(CNCc2ccccc2O)c1` yielded a melting point of 61 to 63 °C.

For the compound `Cc1ccn(-c2ccc(C(=O)N3Cc4cccnc4Oc4ccccc43)c(Cl)c2)n1`, the melting point fell in the range of 220 to 222 °C.

On to `COc1ccc(Cc2cc(C3CCCN(C(=O)c4ccc5c(c4)OCO5)C3)nc(N)n2)cc1` (centres undefined), for which the melting point lay within 125 to 127 °C.

Take `NC(=S)NC[C@H]1CN(c2ccc(N3CCN(C(=O)CO)CC3)c(F)c2)C(=O)O1`: the melting point lay in the range of 209 to 210 °C.

As to `CC(=O)CS(=O)(=O)c1ccc(O)cc1`, the melting point lay in the range of 118 to 121 °C.

As to `COC1CCN(CC=CC(=O)Nc2cc3c(Nc4ccc(F)c(Cl)c4)ncnc3cc2OCC2CC2)CC1`, the melting point is 129 to 130 °C.

As to `CCCC1CCC(C)C(CCC2CC(O)CC(=O)O2)C1COC(=O)C(C)(C)CC` (centres undefined), the melting point was 128 to 130 °C.

Consider `O=C(OCc1ccccc1)c1ccc(O)c(CO)c1`, for which the melting point lay in the range of 109 to 110 °C.

Turning to `COc1cc(C(=O)N2CCC(CCN3CCC(C(=O)c4nc5ccccc5[nH]4)CC3)(c3ccc(Cl)c(Cl)c3)C2)cc(OC)c1OC` (centres undefined), the melting point was in the range of 130 to 140 °C.

The compound `COc1ccc(C(=O)Nc2ccc(C(C)(C)C#N)cc2)cc1` displayed a melting point of 169 to 171 °C.

As to `O=C(c1ccccc1)c1ccc(Cl)c(N=C=S)c1`, the melting point was found to be 96.7 °C.

In turn, `N#CN1C2CCC1CC(c1n[nH]c3ccccc13)C2` (centres undefined) registered a melting point of 201 to 202 °C.

In turn, `COc1ccc(S(=O)(=O)c2ncccn2)cc1` yielded a melting point of 72 °C.

The compound `CC(C)n1nc(-c2cc(C#N)c(N)nc2-c2ccccc2)ccc1=O` came in with a melting point of 197 to 198 °C.

As for `CN(CC(=O)c1cccn1Cc1ccccc1[N+](=O)[O-])Cc1ccccc1`, the melting point lay in the range of 103 to 105 °C.

`CCCCOC(=O)C=C(C)C=CC=C(C)C=Cc1c(C)c(C)c(OC)c(C)c1C` had a melting point of 230 to 233 °C.

In turn, `CSC1=CC2=CN(SC)NN2C(SC)=N1` registered a melting point of 165 to 167 °C.

Take `Nc1ncc(-c2cccnc2)cc1[N+](=O)[O-]`: the melting point was in the range of 226 to 228 °C.

Turning to `CCCCc1nc(=O)c2cc(C3=NN(C(c4ccccc4)(c4ccccc4)c4ccccc4)[C@H]4C(=O)N(C)C(=O)[C@@H]34)ccc2[nH]1` (relative stereo), the melting point came out at 182 °C.

The compound `COc1ccc(CCN2CCC(C(=O)O)(S(=O)(=O)c3ccc(OC)cc3)CC2)cc1` displayed a melting point of 205 °C.

Regarding `Cc1cc(NS(=O)(=O)c2ccc(Br)cc2)cc(C)c1S(=O)(=O)C[N+](=O)[O-]`, the melting point is 164 to 166 °C.

Take `OC(c1ccccc1)(c1ccccc1Cl)c1nccn1Cc1ccccc1` (centres undefined): the melting point amounted to 168 °C.

Consider `O=C(O)C1C=COc2cc(Cl)c(Cl)cc21` (centres undefined), for which the melting point lay within 114 to 117 °C.

`CCOc1c(-c2ccc3cc(NS(C)(=O)=O)ccc3c2)cc(-n2ccc(=O)[nH]c2=O)cc1C(C)(C)C`: the melting point fell in the range of 196 to 202 °C.

Regarding `O=c1[nH]c2ccccc2n1CCOC1CCCCO1` (centres undefined), the melting point is 115 °C.

`CCOC(=O)C=Cc1ccc([N+](=O)[O-])c(OC)c1` showed a melting point of 119 to 120 °C.

For `CC(C(=O)O)c1ccc2c(c1)CCc1ccccc1C2=O` (centres undefined), the melting point was 122 °C.

The compound `CCN1c2ncccc2C(=O)Nc2c(C)cc(NCCCO)nc21` gave a melting point of 222 to 224 °C.

`CCc1nc2ccc(Cc3ccc(C(=O)NO)cc3)cc2c(=O)n1CCc1ccccc1` displayed a melting point of 181 to 183 °C.

For the compound `COC(=O)C(C)(C)n1nnc2ccc(Oc3cc(F)c(C(F)(F)F)c(Cl)c3)cc21`, the melting point lay within 76.8 to 80 °C.

Take `O=C1CN(CC2CCN(c3ncc4ncnc(Nc5ccc(F)c(Cl)c5)c4n3)CC2)CCO1`: the melting point is 202 to 204 °C.

As to `Clc1c2c(nc3ccc(C4CCCCC4)cc13)CCCC2`, the melting point is 89 to 91 °C.

In turn, `CCCCCCCCCCOc1cc(OCCCCCCCCCC)cc(N(CC(=O)O)CC(=O)OC)c1` yielded a melting point of 61 to 62 °C.

In turn, `CC(C(N)=O)c1ccc2c(c1)Oc1ncccc1CC2=O` (centres undefined) returned a melting point of 89 to 90 °C.

`COC(=O)c1c2c(c3c(C)c(OC)c(OC)c(OC)c3c1-c1ccc(OC)c(OC)c1)OCOC2=O`: the melting point lay in the range of 84 to 85 °C.

On to `C1=Cn2cnnc2Cc2ccccc21`, for which the melting point is 157 to 158 °C.

In turn, `CC(C)[Si](C#Cc1c2ccccc2c2ccc3c(C#C[Si](C(C)C)(C(C)C)C(C)C)c4ccccc4c4ccc1c2c34)(C(C)C)C(C)C` returned a melting point of 318 to 321 °C.

The compound `CN(O)C(=O)C(=O)c1ccc(OCCOc2ccc3ccccc3c2)cc1` had a melting point of 161 to 165 °C.

For the compound `Cc1ccsc1C(=O)c1cc(CN(C)C)c(O)c(C(C)(C)C)c1`, the melting point lay in the range of 149 to 150 °C.

`C=CCC(C(=O)OC)C(=O)c1cccnc1` (centres undefined): the melting point was in the range of 112 to 113 °C.

On to `O=C1C(=O)N2CCOc3cc([N+](=O)[O-])cc1c32`, for which the melting point lay within 230 to 232 °C.

`CCOC(=O)c1cccn1Cc1ccc(Cl)cc1N` yielded a melting point of 104 to 107 °C.

As for `O=C1Nc2cc(-c3ccccc3)ccc2OC1CCO` (centres undefined), the melting point lay in the range of 170 to 171 °C.

With `Cc1ccc(-c2ccc3c(=O)ccoc3c2)cc1`, the melting point lay in the range of 159 to 160 °C.

`COc1cc(OC)c2c(=O)[nH]c(-c3cc(C)c(OCCN4CCOCC4)c(C)c3)cc2c1` showed a melting point of 196 to 198 °C.

As for `COC(=O)ON(C(N)=O)C(C)c1cc2ccccc2s1` (centres undefined), the melting point fell in the range of 124 to 125 °C.

Take `CNc1nc(C2C(=O)Nc3ccc(C(F)(F)F)cc32)c2cn(C3CCCC3)nc2n1` (centres undefined): the melting point was > 300 °C.

Regarding `CCOC(=O)c1nc(-c2ccc(OCc3ccccc3)cc2)[nH]c1-c1ccc(C)cc1`, the melting point lay in the range of 168 to 170 °C.

On to `CN1Cc2c(C(N)=O)ncn2-c2ccc(F)cc2C1=O`, for which the melting point lay within 272 to 273 °C.

`O=C(CN1CCC(Cc2ccc(F)cc2)CC1)Nc1ccc2[nH]ncc2c1` showed a melting point of 149 to 152 °C.

`CCOC(=O)CNC(=O)Oc1c(CC)n(C)ccc1=O` yielded a melting point of 99 to 100 °C.

`CC(=O)NC[C@H]1CN(c2ccc(N3CCC4(CC3)COCO4)cc2)C(=O)O1` had a melting point of 134 to 138 °C.

Compound `CO[C@@H]1O[C@H](C(N)=O)[C@H]2OC(C)(C)O[C@@H]12` gave a melting point of 134 to 136 °C.

With `O=C(c1ccc(O)cc1)c1sc2ccc(O)cc2c1-c1ccccc1`, the melting point lay in the range of 152 to 153 °C.

Regarding `CC(=O)Sc1c(C)nn2c3ccccc3n(C(C)=O)c12`, the melting point lay within 191 to 193 °C.

Turning to `COC(=O)[C@H]1[C@@H](N=[N+]=[N-])C(=O)N1Cc1ccc(OC)cc1OC` (relative stereo), the melting point is 82 to 84 °C.

The compound `CC(=O)OCCCOc1ccc2nc3c(cc2c1)NCN3` yielded a melting point of 301 to 303 °C.

As for `CCOC(=O)C1=C(C)NC2=C(C(=O)N(CCN(CC)CC)C2)C1c1ccccc1[N+](=O)[O-]` (centres undefined), the melting point was 187 to 188 °C.

Compound `O=C(O)CO[C@@H]1CCCC[C@H]1NC(=O)Nc1ccccc1` (relative stereo) had a melting point of 166 to 168 °C.

The compound `CC(C)(C)OC(=O)N1CCC(c2nc3cc(-c4ccc(S(C)(=O)=O)c(F)c4)ccc3o2)CC1` showed a melting point of 174 to 178 °C.

Regarding `COc1cc2cc(-c3ccc(=O)[nH]n3)sc2cc1OC`, the melting point was > 300 °C.

`O=Cc1c[nH]c(-c2cccs2)c1`: the melting point was in the range of 198 to 199 °C.

`CCc1nnc(-c2ccc([N+](=O)[O-])cc2)n1-c1ccc(OC)cc1` yielded a melting point of 174 °C.

Compound `CS(=O)(=O)N(Cc1ccccn1)CC(O)(Cn1cncn1)c1ccc(Cl)cc1Cl` (centres undefined) showed a melting point of 154 to 156 °C.

For `O=C(Cl)N1Cc2ccccc2Oc2ccc(Cl)cc21`, the melting point was 100 to 102 °C.

`Cc1cc(N2CCC3(CC2)OCCO3)c2cccc(Br)c2n1`: the melting point was 156 to 158 °C.

In the case of `Cc1ccc(O)c(I)c1`, the melting point lay within 34.5 to 35.5 °C.

On to `CCCc1c(Oc2ccc(C(=O)O)cc2C(=O)O)ccc(C(C)=O)c1O`, for which the melting point was 280 to 283 °C.

The compound `CC(C)Sc1sc(-c2nnn[nH]2)c2c1C(=O)CC(C)(C)C2` came in with a melting point of 228 to 230 °C.
